Assay results taken from patent US8785459B2, “Quinazoline compounds as kinase inhibitors” (Development Center for Biotechnology, priority 2011, dated 2014).

What was measured:
Assay type in all cases: biochemical
B-Raf (V600E) = B-Raf (V600E) (Homo sapiens (Human), UniProt P15056, V600E); assay: Raf kinase assay (B-Raf (V600E)), [33P] incorporation into MEK1(K97R)
Summary of the method: (§1)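 Recombinant C-Raf (2 ng) or B-Raf or B-Raf V600E (5 ng each) phosphorylated 500 ng MEK1(K97R) with 8 μM ATP plus [33P]ATP, pH 7.5, 30 min at 30 °C. Filter-captured 33P counted. IC50 from 3-fold compound dilutions run in duplicate.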

B-Raf = B-Raf (Homo sapiens (Human), UniProt P15056); assay: Raf kinase assay (B-Raf), [33P] incorporation into MEK1(K97R)
B-Raf, sequence (P15056 whole entry): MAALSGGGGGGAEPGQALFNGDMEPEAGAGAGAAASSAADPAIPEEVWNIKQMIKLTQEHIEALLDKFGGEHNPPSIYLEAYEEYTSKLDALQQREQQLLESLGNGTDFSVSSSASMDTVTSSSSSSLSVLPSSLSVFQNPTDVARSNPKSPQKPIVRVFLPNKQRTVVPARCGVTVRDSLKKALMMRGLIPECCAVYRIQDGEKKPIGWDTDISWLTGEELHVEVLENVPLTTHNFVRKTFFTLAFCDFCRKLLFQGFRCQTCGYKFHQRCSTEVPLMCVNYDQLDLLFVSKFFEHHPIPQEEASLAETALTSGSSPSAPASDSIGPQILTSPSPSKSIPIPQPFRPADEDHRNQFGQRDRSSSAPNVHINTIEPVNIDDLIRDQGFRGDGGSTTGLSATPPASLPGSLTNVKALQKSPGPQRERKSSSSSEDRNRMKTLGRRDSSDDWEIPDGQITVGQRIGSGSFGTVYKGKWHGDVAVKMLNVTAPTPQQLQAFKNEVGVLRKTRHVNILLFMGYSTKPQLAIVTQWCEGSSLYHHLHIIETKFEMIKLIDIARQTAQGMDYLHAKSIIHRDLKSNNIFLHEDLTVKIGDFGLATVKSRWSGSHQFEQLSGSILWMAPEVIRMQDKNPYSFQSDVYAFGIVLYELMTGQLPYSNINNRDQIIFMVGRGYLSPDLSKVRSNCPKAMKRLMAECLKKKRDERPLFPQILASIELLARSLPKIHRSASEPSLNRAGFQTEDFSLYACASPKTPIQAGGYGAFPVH
Summary of the method: as §1

VEGFR2 kinase = VEGFR2 kinase (Homo sapiens (Human), UniProt P35968); assay: VEGFR2 kinase assay
VEGFR2 kinase, sequence (P35968 834-1162): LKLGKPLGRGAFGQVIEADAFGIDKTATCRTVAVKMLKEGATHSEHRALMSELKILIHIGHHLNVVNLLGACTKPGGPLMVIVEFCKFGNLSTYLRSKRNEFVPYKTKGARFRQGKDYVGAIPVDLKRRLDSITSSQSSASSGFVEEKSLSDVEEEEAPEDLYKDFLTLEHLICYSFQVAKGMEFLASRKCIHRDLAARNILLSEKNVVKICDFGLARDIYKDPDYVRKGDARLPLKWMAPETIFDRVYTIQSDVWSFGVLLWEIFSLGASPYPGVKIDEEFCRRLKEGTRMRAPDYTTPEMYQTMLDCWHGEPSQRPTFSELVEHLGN
Experimental: Inhibition of VEGFR2 kinase activity by compounds disclosed herein was quantified by measuring the amount of [^33P] incorporated into the substrate in the presence of a test compound. […] The reaction was then stopped by adding 5 μL of 3% phosphoric acid solution. The resultant solution was transferred to and harvested by a filter plate (UniFilter-96 GF/B, PerkinElmer). The filter plate was then washed 20 times with d.d. H2O for 5 min followed by the addition of 30 μL of MicroScint™-20 Cocktail (PerkinElmer). After the plate was sealed, the retained radioactivity on the filter was counted using a TopCount™ scintillation detector (PerkinElmer). […]

C-Raf = C-Raf (Homo sapiens (Human), UniProt P04049); assay: Raf kinase assay (C-Raf), [33P] incorporation into MEK1(K97R)
C-Raf, sequence (P04049 whole entry): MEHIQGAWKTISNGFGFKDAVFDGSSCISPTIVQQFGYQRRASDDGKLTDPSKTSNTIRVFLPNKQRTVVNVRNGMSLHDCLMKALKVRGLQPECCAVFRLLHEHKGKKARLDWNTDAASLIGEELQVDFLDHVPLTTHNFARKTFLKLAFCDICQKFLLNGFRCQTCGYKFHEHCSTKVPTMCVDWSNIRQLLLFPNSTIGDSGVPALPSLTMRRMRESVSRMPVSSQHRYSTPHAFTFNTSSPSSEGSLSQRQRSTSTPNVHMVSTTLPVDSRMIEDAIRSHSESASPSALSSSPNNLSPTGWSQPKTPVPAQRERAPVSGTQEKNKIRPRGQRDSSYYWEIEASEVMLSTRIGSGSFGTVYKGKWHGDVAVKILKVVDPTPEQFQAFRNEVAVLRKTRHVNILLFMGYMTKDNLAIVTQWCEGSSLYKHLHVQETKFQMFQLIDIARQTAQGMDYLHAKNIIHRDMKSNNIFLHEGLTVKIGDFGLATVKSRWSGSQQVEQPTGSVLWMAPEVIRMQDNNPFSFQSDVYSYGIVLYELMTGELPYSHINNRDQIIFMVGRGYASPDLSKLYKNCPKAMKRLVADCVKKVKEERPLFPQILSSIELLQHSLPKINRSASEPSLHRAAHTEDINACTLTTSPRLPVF
Summary of the method: as §1

EGFR kinase = EGFR kinase (Homo sapiens (Human), UniProt P00533); assay: EGFR kinase assay
EGFR kinase, sequence (P00533 712-979): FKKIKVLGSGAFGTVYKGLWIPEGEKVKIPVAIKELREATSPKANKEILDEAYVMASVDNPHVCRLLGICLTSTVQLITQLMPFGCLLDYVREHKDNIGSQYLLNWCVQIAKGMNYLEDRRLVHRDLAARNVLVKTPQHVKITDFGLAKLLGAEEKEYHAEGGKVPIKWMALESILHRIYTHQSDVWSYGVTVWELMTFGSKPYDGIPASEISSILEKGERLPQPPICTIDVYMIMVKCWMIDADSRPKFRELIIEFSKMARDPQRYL
Experimental: Inhibition of EGFR kinase activity by compounds disclosed herein is quantified by measuring the amount of [^33P] incorporated into the substrate in the presence of a test compound. Briefly, a reaction mixture of 25 μL final volume containing 25 ng of EGFR kinase (EGFR kinase domain alone, Millipore), 3 μg of the substrate [poly(Glu-Tyr), Sigma], kinase reaction buffer (10 mM MOPS pH 7.0, 0.3 mM EDTA, 0.5% glycerol, 0.001% Brij-35, 10 mM MnCl2, 0.1 mg/ml BSA, 100 μM ATP, 0.1 μCi per well [^33P]-γ-ATP (2,500-3,000 Ci/mmol)), and a test compound (100 nM, diluted with 4% DMSO) or DMSO (as the control) was incubated at 30° C. for 30 minutes. The reaction was stopped by adding 5 μL of 3% phosphoric acid solution. The resultant reaction solution was then harvested onto a filter plate (UniFilter-96 GF/B, PerkinElmer), washed 20 times for 5 min with d.d. H2O, and followed by the addition of 30 μL of MicroScint™-20 Cocktail (PerkinElmer). The radioactivity retained on the filter membrane was measured by TopCount™ scintillation detector (PerkinElmer). The results were analyzed by using linear regression software (GraphPad Prism™ 4; GraphPad Software Inc.). IC50 value is defined as the concentration of the test compound which achieves a half-maximal inhibition of the kinase activity.

FLT3 kinase = FLT3 kinase (Homo sapiens (Human), UniProt P36888); assay: FLT3 kinase assay
FLT3 kinase, sequence (P36888 610-943): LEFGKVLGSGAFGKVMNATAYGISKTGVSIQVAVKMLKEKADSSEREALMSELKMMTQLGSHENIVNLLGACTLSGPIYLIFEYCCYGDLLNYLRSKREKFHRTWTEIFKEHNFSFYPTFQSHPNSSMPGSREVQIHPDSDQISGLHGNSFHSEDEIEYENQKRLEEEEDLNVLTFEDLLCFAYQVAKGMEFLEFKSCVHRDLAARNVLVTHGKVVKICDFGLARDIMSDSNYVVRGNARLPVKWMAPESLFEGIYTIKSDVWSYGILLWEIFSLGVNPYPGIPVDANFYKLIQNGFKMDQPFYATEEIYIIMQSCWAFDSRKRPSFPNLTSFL
Experimental: Inhibition of FLT3 kinase activity by compounds disclosed herein was quantified by measuring the amount of [^33P] incorporated into the substrate in the presence of a test compound. Briefly, a reaction mixture of 25 μL final volume containing 5 ng of Flt3 kinase (obtained by purifying recombinant N-terminal 6×His-tagged Flt3 kinase domain construct expressed from baculovirus), 5 μg of the substrate (Poly(Glu-Tyr, 4:1, Sigma)), kinase reaction buffer (20 mM MOPS pH 7.0, 1 mM EDTA, 5% glycerol, 0.01% Brij-35, 0.1% β-mercaptoethanol, 1 mg/mL BSA, 100 μM ATP, 0.1 μCi per well [^33P]-γ-ATP (2,500-3,000 Ci/mmol)), and a test compound (100 nM, diluted with 4% DMSO) or DMSO (as the control) was incubated at 30° C. for 30 minutes. The reaction was stopped by adding 5 μL of 3% phosphoric acid solution. The resultant reaction solution was then harvested onto a filter plate (UniFilter-96 GF/B, PerkinElmer), washed 20 times for 5 min with d.d. H2O, and followed by the addition of 30 μL of MicroScint™-20 Cocktail (PerkinElmer). The plate was then sealed and counted using a TopCount™ scintillation detector (PerkinElmer). IC50 value is defined as the concentration of the test compound which achieves a half-maximal inhibition of the kinase activity.

FGFR1 kinase = FGFR1 kinase (Homo sapiens (Human), UniProt P11362); assay: FGFR1 kinase assay
FGFR1 kinase, sequence (P11362 478-767): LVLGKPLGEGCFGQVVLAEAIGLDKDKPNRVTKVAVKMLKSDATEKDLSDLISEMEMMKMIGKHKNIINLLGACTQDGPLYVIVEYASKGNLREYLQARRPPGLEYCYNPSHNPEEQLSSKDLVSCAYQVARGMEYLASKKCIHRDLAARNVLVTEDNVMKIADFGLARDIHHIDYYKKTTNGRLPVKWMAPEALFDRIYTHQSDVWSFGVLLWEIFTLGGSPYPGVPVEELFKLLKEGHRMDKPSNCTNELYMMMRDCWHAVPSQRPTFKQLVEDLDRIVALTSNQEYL
Experimental: Inhibition of FGFR1 kinase activity by compounds disclosed herein was quantified by measuring the amount of [^33P] incorporated into the substrate in the presence of a test compound. Briefly, a reaction mixture of 25 μL final volume containing 1 ng of FGFR1 kinase (FGFR1 kinase domain alone, Millipore), 5 μg of the substrate [poly(Glu-Tyr), Sigma], kinase reaction buffer (14 mM MOPS pH 7.0, 0.2 mM EDTA, 0.5% glycerol, 0.001% Brij-35, 0.01% β-mercaptoethanol, 0.1 mg/ml BSA, 100 μM ATP, 0.1 μCi per well [^33P]-γ-ATP (2,500-3,000 Ci/mmol)), and a test compound (100 nM, diluted with 4% DMSO) or DMSO (as the control) was incubated at 30° C. for 60 minutes. The reaction was stopped by adding 5 μL of 3% phosphoric acid solution. The resultant reaction solution was then harvested onto a filter plate (UniFilter-96 GF/B, PerkinElmer), washed 20 times for 5 min with d.d. H2O, and followed by the addition of 30 μL of MicroScint™-20 Cocktail (PerkinElmer). The radioactivity retained on the filter membrane was measured by TopCount™ scintillation detector (PerkinElmer). The results were analyzed by using linear regression software (GraphPad Prism™ 4; GraphPad Software Inc.). IC50 value is defined as the concentration of the test compound which achieves a half-maximal inhibition of the kinase activity.

B-Raf (V600E), sequence (P15056 whole entry V600E): as the sequence (P15056 whole entry) above, with V600E counted along it

IC50 (B-Raf (V600E)): 522 nM
IC50 (B-Raf): 557 nM
inhibition at 1 µM (B-Raf; 1.0 μM compound, read-out: B-Raf inhibition at 1.0 μM): 55.8%
IC50 (VEGFR2 kinase): 5400 nM
IC50 (C-Raf): 503 nM
IC50 (EGFR kinase): 56.4 nM
IC50 (FLT3 kinase): 146 nM
IC50 (FGFR1 kinase): 1440 nM
SMILES: COc1cc(-c2ccc3ncnc(Nc4ccc(O)cc4)c3c2)ccc1O [Compound 19, 4-(4-(4-hydroxyphenylamino)quinazolin-6-yl)-2-methoxyphenol]
